The structures appear in SMILES notation.

What all share (assay type): cell-based
In one assay the test system is H1581 cells. The assay is described as follows: MTT proliferation assay, H1581. The following applies: H1581, 10 μM NGI-1, 5 d. The procedure: FIGS. 4A-4H illustrate the finding that NGI-1 blocks RTK driven proliferation. FIG. 4A illustrates western blot analysis of EGFR phosphorylation (Y1173) and gel mobility in PC9 (EGFR-mutant) and A549 (k-ras mutant) NSCLC cells after 10 μM NGI-1 treatment for 24 h. […] Actin expression was used as a control for protein loading. FIG. 4B illustrates MTT assays results of PC9 following treatment with 10 μM NGI-1 or 1 μM tunicamycin for a total of 5 d. Relative proliferation id reported in fold increase from day 0. FIG. 4C illustrates MTT assays results of A549 following treatment with 10 μM NGI-1 or 1 μM tunicamycin for a total of 5 d. Relative proliferation id reported in fold increase from day 0. FIG. 4D illustrates protein phosphorylation profiles of PC9 cells analyzed by phospho-protein array to assess the response of PC9 to 10 μM NGI-1 for 24 h. FIG. 4E illustrates protein phosphorylation profiles of A549 cells analyzed by phospho-protein array to assess the response of A549 to 10 μM NGI-1 for 24 h. […]
Growth rates were determined by CellTiter 96 NonRadioactive Cell Proliferation Assay (Promega; Madison, Wis. USA) according to the manufacturer's directions. […] Cell numbers were estimated after 0, 3, and 5 days by adding MTT [(3-(4,5-Dimethylthiazol-2-yl)-2,5-diphenyltetrazolium bromide] reagent to the wells 4 hours before taking the spectrophotometric reading (absorbance at 570 nm).
On the technique in general: Tetrazolium dyes change colour on reduction, which living cells bring about.

Assay [1] relates to PC9 cells. The assay can be described thus: Assessment of senescence, autofluorescence by flow cytometry, PC9. The following applies: PC9, NGI-1 treatment for 5 days. The procedure: FIGS. 5A-5G illustrate NGI-1 induces G1 arrest and senescence in EGFR addicted tumor cells. FIG. 5A illustrates cell cycle distribution of PC9 cells after 24 h NGI-1 treatment for 24 h determined by flow cytometry. […] FIG. 5B illustrates cell cycle distribution of A549 cells after 24 h NGI-1 treatment for 24 h determined by flow cytometry. FIG. 5C illustrates western blot time course of cyclin D1 expression in PC9 and A549 cells after NGI-1 treatment. FIG. 5D illustrates quantitative real-time PCR analysis of PC9 and A549 cells. A time course of cyclin D1 expression levels relative to GAPDH is represented. […] FIG. 5F illustrates senescence of PC9 cells explored by: cell autofluorescence, measured by flow cytometry using a detector for PE/YFP; lipofuscin accumulation, detected by confocal laser scanning microscopy using an excitation laser of 405 nm with acquired signals from spectrums of yellow 575-620 nm; and morphology changes, enlarged vs. flattened. […] Significance was calculated using a T test (*p<0.05. **p<0.01). FIG. 5G illustrates senescence of A549 cells explored by: cell autofluorescence, measured by flow cytometry using a detector for PE/YFP; lipofuscin accumulation, detected by confocal laser scanning microscopy using an excitation laser of 405 nm with acquired signals from spectrums of yellow 575-620 nm; and morphology changes, enlarged vs. flattened. […]
(In flow cytometry, cells or beads pass a laser one at a time.)

Assay [2] concerns PC9 cells. The assay can be described thus: Apoptosis by flow cytometry (Annexin-V, 7-AAD), PC9. The following applies: PC9, NGI-1 10 μM for 2 or 5 days, or Tn 1 μM. The procedure: Analysis of apoptosis susceptibility in A549 and PC9 NSCLC cell lines followed treatment with NGI-1 10 μM or Tn 1 μM for 2 days was done by flow cytometry after staining the cells with Annexin-V (early apoptosis) and 7-AAD (viability dye). […] FIG. 9C: Western blot of BIP protein for A549 and PC9 cells after treatment with 10 μM NGI-1 for 6, 12 or 24 h. The expression of GAPDH was used as a loading control.

Take `Cc1cnc(NC(=O)c2cc(S(=O)(=O)N(C)C)ccc2N2CCCC2)s1` [NGI-1, 5-(N,N-Dimethylsulfamoyl)-N-(5-methylthiazol-2-yl)-2-(pyrrolidin-1-yl)benzamide]: the “effect on proliferation, MTT” value with H1581 cells was “blocked proliferation of the H1581 cell line”. Besides, in the assay on PC9 cells [1], the “increase of autofluorescence by flow cytometry” value was below 60%. For the same compound, in the assay on PC9 cells [2], the induction of apoptosis result was “did not induce apoptosis”.

These data come from patent publication US11219625B2, “Inhibitors of N-linked glycosylation and methods using same” (YALE UNIVERSITY, priority 2015, dated 2022).
